Experiments:
5HT2A receptor site = target: T1, 5HT2A receptor site (Mus musculus, UniProt P35363); experiment: Head Twitch Assay (5-MeODMT induced head twitch); format: in vivo; details: for ED50: mouse, sc, dose blocking 5-MeODMT (30 mg/kg i.p.) head twitch in 50% of male mice; for % effect @ 3 mg/kg: 3 mg/kg sc
T1 construct: from tissue; host or cells: live male mice (whole animal)
Description: This Example 177 illustrates the study of efficacy of the compounds of this invention at the 5HT2A receptor site in animal models.
5-MeODMT (5-Methoxy-N,N-dimethyltryptamine) Inhibition: Groups of male mice are administered test compounds at selected doses. At an appropriate interval thereafter, 5-MeODMT (dissolved in 0.5% ascorbic acid) is administered at a dose of 30 mg/kg i.p. Immediately after administration of 5-MeODMT, and continuing for the following 6 min, the number of head twitches for each animal is counted. […] The ED50 is calculated as the dose necessary to block head twitch in 50% of the test animals. All experiments are performed with at least 10 animals per condition.

human 5HT2A receptor = target: T2, human 5HT2A receptor (Homo sapiens, UniProt P28223); experiment: Receptor Binding Assay, 5HT2A ([3H]N-methyl spiperone); details: BHK cells expressing human 5HT2A receptor, 2.5 nM [3H]N-methyl spiperone, 37° C.
T2 construct: expressed in transfected cells
T2 sequence (P28223 whole entry): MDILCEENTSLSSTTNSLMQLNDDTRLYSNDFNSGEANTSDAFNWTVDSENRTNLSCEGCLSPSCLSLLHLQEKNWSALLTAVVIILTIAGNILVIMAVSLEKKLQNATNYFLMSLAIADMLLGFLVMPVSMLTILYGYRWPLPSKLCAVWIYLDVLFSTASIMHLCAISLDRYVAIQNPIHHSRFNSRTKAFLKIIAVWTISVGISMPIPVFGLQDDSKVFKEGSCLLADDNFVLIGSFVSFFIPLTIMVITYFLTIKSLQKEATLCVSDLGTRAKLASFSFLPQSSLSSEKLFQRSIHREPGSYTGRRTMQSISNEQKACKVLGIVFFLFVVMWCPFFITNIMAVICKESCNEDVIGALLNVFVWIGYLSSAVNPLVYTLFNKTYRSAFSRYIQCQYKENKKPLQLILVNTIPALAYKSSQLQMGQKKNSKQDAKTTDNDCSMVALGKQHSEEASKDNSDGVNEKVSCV
Description: Cell Culture: BHK cells stably expressing the human 5HT2A receptor were maintained in Dulbecco's Modified Eagle's Medium supplemented with […] Geneticin, 1% Sodium Pyruvate, 1% Pen-Strep and 10% Fetal Calf Serum, and treated with 5 mM sodium butyrate for 24 h to increase receptor expression before harvesting. Cells were harvested by mechanical scraping, washed with Phosphate Buffered Saline, and stored at −80° C. in 10% DMSO in 1 mg/mil aliquots until used. Protein determination was made according to Lowry.
Receptor Binding Assays: The 5HT2A and D2L assays were conducted at 37° C. in a Tris buffer containing salts (50 mM Tris Buffer, pH 7.7; 120 mM NaCl; 5 mM KCl; 2 mM CaCl2; 1 mM MgCl2). Cell membranes (previously prepared and frozen) were rapidly thawed. Membranes were diluted to an appropriate concentration (to produce 100 μg protein/assay point for 5HT2A, and 58 μg protein/assay point for D2L) in Tris buffer and homogenized. Assays were conducted on 96-well plates, using 2.5 and 1 nM [^3H]N-methyl spiperone as radioligand for 5HT2A and D2L assays, respectively. Plates were incubated at 37° C. in a shaking water bath for 30 and 60 min, for 5HT2A and D2L, respectively. Nonspecific binding was defined using 100 μM methylsergide and eticlopride, for 5HT2A and D2L, respectively.
Assays were terminated by rapid filtration through Millipore MAFB or MAFC (5HT2C) filter plates (presoaked in 50 mM Tris HCl, pH 7.7, with 0.1% Brij) using a Millipore Cell Harvester. The filter plates were then washed with ice-cold 50 mM Tris buffer, pH 7.7, and allowed to dry overnight. 50 μl of Microscint scintillation cocktail were added and the plates were counted in a Packard Topcount scintillation counter.
IC50 and Ki calculations were performed using nonlinear regression one-site competition analysis (GraphPad, Prism), with top and bottom limits held constant at 0% and 100% inhibition, respectively. The percent inhibition at each drug concentration was the average of duplicate determinations. Except where indicated, each determination was performed 2 to 5 times.

T1 sequence (P35363 whole entry): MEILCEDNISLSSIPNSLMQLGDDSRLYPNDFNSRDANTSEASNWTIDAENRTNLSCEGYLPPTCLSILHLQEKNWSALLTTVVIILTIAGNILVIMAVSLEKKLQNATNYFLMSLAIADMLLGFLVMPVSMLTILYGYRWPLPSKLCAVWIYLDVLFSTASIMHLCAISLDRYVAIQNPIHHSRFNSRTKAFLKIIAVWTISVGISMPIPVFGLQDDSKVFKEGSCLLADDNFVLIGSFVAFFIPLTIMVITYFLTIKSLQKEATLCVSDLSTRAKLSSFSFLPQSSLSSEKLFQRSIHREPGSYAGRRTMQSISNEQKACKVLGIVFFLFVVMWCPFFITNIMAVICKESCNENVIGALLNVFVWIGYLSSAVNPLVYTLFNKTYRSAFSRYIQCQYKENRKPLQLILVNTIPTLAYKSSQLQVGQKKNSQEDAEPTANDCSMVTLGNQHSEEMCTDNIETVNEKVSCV

SMILES	% effect @ 1 mg/kg (5HT2A receptor site; 1 mg/kg sc, head twitch, male mice) [%]	ED50 (5HT2A receptor site) [mg/kg]	Ki (human 5HT2A receptor) [nM]	% effect @ 3 mg/kg (5HT2A receptor site; head twitch, male mice) [%]
CN(C)CCN(Cc1ccccc1)Cc1cccc(-c2ccc3[nH]c(=O)oc3c2)c1.Cl [Example 3]	100	< 1	0.9	
O=C(c1ccc(F)cc1)N(CCN1CCCC1)Cc1cc(-c2ccc3[nH]ccc3c2)ccc1F [Example 20, 4-Fluoro-N-[2-fluoro-5-(1H-indol-5-yl)-benzyl]-N-(2-pyrrolidin-1-yl-ethyl)-benzamide]		0.27	0.32	
O=C(c1ccc(F)cc1)N(CCN1CCCC1)Cc1cc(-c2ccc3[nH]c(=O)oc3c2)ccc1F [Example 21]		< 3	0.26	60
Cc1cc2cc(-c3ccc(F)c(CN(CCN(C)C)C(=O)c4ccc(F)cc4)c3)ccc2[nH]1 [Example 23]		0.16	0.37	
CN(C)CCN(Cc1cc(-c2ccc3[nH]ccc3c2)ccc1F)C(=O)c1ccc(F)cc1 [Example 26]		0.82	0.68	
CN1CCC(N(Cc2cccc(-c3ccc4[nH]ccc4c3)c2)C(=O)c2ccc(F)cc2)CC1 [Example 27]		0.59	0.7	
CN1CCC(N(Cc2cc(-c3ccc4[nH]ccc4c3)ccc2F)C(=O)c2ccc(F)cc2)CC1 [Example 34]		1.09	1.25	
Fc1ccc([C@H]2CNCCN2Cc2cc(-c3ccc4[nH]ncc4c3)ccc2F)cc1 [Example 42, {4-Fluoro-3-[2S-(4-fluoro-phenyl)-piperazin-1-ylmethyl]-phenyl}-1H-indazole]		1.73	0.61	
CC(=O)O.Fc1ccc(-c2ccc3[nH]ncc3c2)cc1CN1CCNC[C@@H]1c1cccs1 [Example 44]		0.54		
Fc1ccc(-c2ccc3[nH]ncc3c2)cc1CN1CCNCC1c1cccs1 (stereo not drawn) [Example 47]		~3	1.24	50
CC(=O)O.CN1CCN(Cc2cncc(-c3ccc4[nH]ccc4c3)c2)[C@@H](c2ccc(F)cc2)C1 [Example 91, 5-{5-[2S-(4-Fluoro-phenyl)-4-methyl-piperazin-1-ylmethyl]-pyridin-3-yl}-1H-indole acetate]		0.41	0.6	
CN1CCN(Cc2cc(-c3ccc4[nH]ccc4c3)ccc2F)[C@@H](c2ccc(F)cc2)C1 [Example 92, 5-{4-Fluoro-3-[2S-(4-fluoro-phenyl)-4-methyl-piperazin-1-ylmethyl]-phenyl}-1H-indole]		0.53		
CN1CCN(Cc2cc(-c3ccc4[nH]ccc4c3)co2)[C@@H](c2ccc(F)cc2)C1.O=C(O)C(F)(F)F [Example 94, 5-{5-[2S-(4-Fluoro-phenyl)-4-methyl-piperazin-1-ylmethyl]-furan-3-yl}-1H-indole; compound with trifluoro-acetate]		~3		50
CC(=O)O.CN1CCN(Cc2cc(-c3ccc4[nH]c(=O)oc4c3)co2)[C@@H](c2ccc(F)cc2)C1 [Example 95, 6-{5-[2S-(4-Fluorophenyl)-4-methylpiperazine-1-ylmethyl]-furan-3-yl}-3H-benzoxazol-2-one]		0.5	1.9	
CC(=O)O.CN1CCN(Cc2cncc(-c3ccc4[nH]c(=O)oc4c3)c2)[C@@H](c2ccc(F)cc2)C1 [Example 98, 6-{5-[2S-(4-Fluoro-phenyl)-4-methyl-piperazin-1-ylmethyl]-pyridin-3-yl}-3H-benzooxazol-2-one acetate]		0.49	1.2	
CN(C)CCN(Cc1cc(-c2ccc3[nH]c(=O)oc3c2)ccc1F)C(=O)c1ccc(F)cc1 [Example 104, N-(2-Dimethylamino-ethyl)-4-fluoro-N-[2-fluoro-5-(2-oxo-2,3-dihydro-benzooxazol-6-yl)-benzyl]-benzamide]		6.36	0.31	

SMILES	% effect @ 1 mg/kg (5HT2A receptor site; 1 mg/kg sc, head twitch, male mice) [%]	ED50 (5HT2A receptor site) [mg/kg]	Ki (human 5HT2A receptor) [nM]	% effect @ 3 mg/kg (5HT2A receptor site; head twitch, male mice) [%]
Fc1ccc([C@H]2CNCCN2Cc2cncc(-c3ccc4[nH]ccc4c3)c2)cc1 [Example 114, 5-{5-[2S-(4-Fluoro-phenyl)-piperazin-1-ylmethyl]-pyridin-3-yl}-1H-indole acetate]			0.48	
Fc1ccc([C@H]2CNCCN2Cc2cc(-c3ccc4[nH]ccc4c3)co2)cc1 [Example 115, 5-{5-[2S-(4-Fluoro-phenyl)-piperazin-1-ylmethyl]-furan-3-yl}-1H-indole]			2.88	
Fc1ccc([C@H]2CNCCN2Cc2cc(-c3ccc4[nH]ncc4c3)co2)cc1 [Example 116, 5-{5-[2S-(4-Fluoro-phenyl)-piperazin-1-ylmethyl]furan-3-yl}-1H-indazole]			1.79	
O=c1[nH]c2ccc(-c3coc(CN4CCNC[C@@H]4c4ccc(F)cc4)c3)cc2o1 [Example 117, 6-{5-[2S-(4-Fluoro-phenyl)-piperazin-1-ylmethyl]-furan-3-yl}-3H-benzooxazol-2-one acetate]			4.79	
CN1CCC(N(Cc2ccc(F)cc2)Cc2cc(-c3ccc4[nH]c(=O)oc4c3)co2)CC1 [Example 118, 6-(5-{[(4-Fluoro-benzyl)-(1-methyl-piperidin-4-yl)-amino]-methyl}-furan-3-yl)-3H-benzooxazol-2-one]			1.1	
CN1CCC(N(Cc2ccc(F)cc2)Cc2cc(-c3ccc4[nH]ncc4c3)co2)CC1 [Example 119, (4-Fluoro-benzyl)-[4-(1H-indazol-5-yl)-furan-2-ylmethyl]-(1-methyl-piperidin-4-yl)-amine]			0.78	
CN1CCN(Cc2cccc(-c3ccc4[nH]ccc4c3)c2)CC1 [Example 120, 5-[3-(4-Methyl-piperazin-1-ylmethyl)-phenyl]-1H-indole]			65	
CN1CCCN(Cc2cccc(-c3ccc4[nH]ccc4c3)c2)CC1 [Example 121, 5-[3-(4-Methyl-[1,4]diazepan-1-ylmethyl)-phenyl]-1H-indole]			82	
O=C(c1ccc(F)cc1)N(CCN1CCCC1)Cc1cc(F)cc(-c2ccc3[nH]ccc3c2)c1 [Example 133, 4-Fluoro-N-[3-fluoro-5-(1H-indol-5-yl)-benzyl]-N-(2-pyrrolidin-1-yl-ethyl)-benzamide]		0.92		
CN(C)CCN(Cc1ccc(F)cc1)Cc1cc(-c2ccc3[nH]cc(C#N)c3c2)ccc1F [Example 140, 5-(3-{[(2-Dimethylamino-ethyl)-(4-fluoro-benzyl)-amino]-methyl}-4-fluoro-phenyl)-1H-indole-3-carbonitrile trifluoro-acetate]			22.6	
CC(=O)O.CN1CCN(Cc2cc(-c3ccc4[nH]ncc4c3)ccc2F)[C@@H](c2cccs2)C1 [Example 159, 5-[4-Fluoro-3-(4-methyl-2R-thiophen-2-yl-piperazin-1-ylmethyl)-phenyl]-1H-indazole acetate]		0.04		
CN1CCN(Cc2cc(-c3ccc4[nH]ncc4c3)co2)[C@@H](c2ccc(F)cc2)C1 [Example 161, 5-{5-[2S-(4-Fluoro-phenyl)-4-methyl-piperazin-1-ylmethyl]-furan-3-yl}-1H-indazole]		0.16		
CN1CCN(C(=O)c2cc(-c3ccc4[nH]ccc4c3)ccc2F)[C@@H](c2ccc(F)cc2)C1 [Example 171, [2-Fluoro-5-(1H-indol-5-yl)-phenyl]-[2S-(4-fluoro-phenyl)-4-methyl-piperazin-1-yl]-methanone]			85	
Fc1ccc([C@H]2CNCCN2Cc2cc(-c3ccc4[nH]ccc4c3)ccc2F)cc1 [Example 174, 5-{4-Fluoro-3-[2S-(4-fluoro-phenyl)-piperazin-1-ylmethyl]-phenyl}-1H-indole acetate]			0.9	
CN1CCN(Cc2cc(-c3ccc4[nH]cc(C#N)c4c3)ccc2F)[C@@H](c2ccc(F)cc2)C1 [Example 175, 5-{4-Fluoro-3-[2S-(4-fluoro-phenyl)-4-methyl-piperazin-1-ylmethyl]-phenyl}-1H-indole-3-carbonitrile]			3.2	

From US7625889B2, “Substituted bis aryl and heteroaryl compounds as selective 5HT2A antagonists” (Aventis Pharmaceuticals Inc., priority 2005, dated 2009)
